ChEMBL document CHEMBL1909046, “DrugMatrix in vitro pharmacology data”

Assays:
[1] = DRUGMATRIX: Phosphodiesterase PDE4 enzyme inhibition (substrate: [3H]cAMP + cAMP); details: u-937; Not Active = under 50% inhibition at 10 µM
[2] = target: 5-hydroxytryptamine receptor 2B (Homo sapiens, UniProt P41595); assay type: cell membranes, CHO-K1, Membrane; also: in other assays of this panel Not Active means under 50% inhibition at 10 µM
[3] = target: C-C chemokine receptor type 2 (Homo sapiens, UniProt P41597); assay type: cell membranes, CHO-K1, Membrane; details: cho-k1; also: in other assays of this panel Not Active means under 50% inhibition at 10 µM
Chain of C-C chemokine receptor type 2 (P41597 whole entry): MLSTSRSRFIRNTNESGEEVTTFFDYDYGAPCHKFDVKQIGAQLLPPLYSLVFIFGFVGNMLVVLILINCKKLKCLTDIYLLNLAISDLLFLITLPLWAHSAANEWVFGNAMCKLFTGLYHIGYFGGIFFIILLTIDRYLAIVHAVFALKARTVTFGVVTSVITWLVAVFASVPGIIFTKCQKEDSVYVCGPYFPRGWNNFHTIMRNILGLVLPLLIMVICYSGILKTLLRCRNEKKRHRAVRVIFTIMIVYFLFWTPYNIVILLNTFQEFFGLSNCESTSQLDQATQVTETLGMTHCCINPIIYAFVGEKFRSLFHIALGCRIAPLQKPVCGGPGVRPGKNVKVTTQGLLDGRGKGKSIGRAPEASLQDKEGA

D(1A) dopamine receptor = D(1A) dopamine receptor (Homo sapiens, UniProt P21728); test: DRUGMATRIX: Dopamine D1 radioligand binding (ligand: [3H] SCH-23390); assay type: cell membranes, Membrane; details: cho; Not Active = under 50% inhibition at 10 µM
Chain of D(1A) dopamine receptor (P21728 whole entry): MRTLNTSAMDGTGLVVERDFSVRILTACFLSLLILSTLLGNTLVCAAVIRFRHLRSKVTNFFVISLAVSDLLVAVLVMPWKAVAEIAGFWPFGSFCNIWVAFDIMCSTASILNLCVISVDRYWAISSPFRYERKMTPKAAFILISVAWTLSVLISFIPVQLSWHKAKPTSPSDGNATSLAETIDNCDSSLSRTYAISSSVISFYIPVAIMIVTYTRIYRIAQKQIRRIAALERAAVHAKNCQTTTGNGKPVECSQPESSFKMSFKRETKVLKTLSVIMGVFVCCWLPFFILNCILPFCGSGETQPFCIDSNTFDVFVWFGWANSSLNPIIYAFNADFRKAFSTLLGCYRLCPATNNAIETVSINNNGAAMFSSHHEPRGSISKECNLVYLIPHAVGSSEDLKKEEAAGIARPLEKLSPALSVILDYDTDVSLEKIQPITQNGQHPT

Adenosine receptor A1 = target: T1, Adenosine receptor A1 (Homo sapiens, UniProt P30542); assay type: cell membranes, Membrane; details: cho;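 also: radioligand binding assay at the adenosine A1 receptor, with DPCPX serving as the labelled ligand; in other assays of this panel Not Active means under 50% inhibition at 10 µM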
T1 sequence (P30542 whole entry): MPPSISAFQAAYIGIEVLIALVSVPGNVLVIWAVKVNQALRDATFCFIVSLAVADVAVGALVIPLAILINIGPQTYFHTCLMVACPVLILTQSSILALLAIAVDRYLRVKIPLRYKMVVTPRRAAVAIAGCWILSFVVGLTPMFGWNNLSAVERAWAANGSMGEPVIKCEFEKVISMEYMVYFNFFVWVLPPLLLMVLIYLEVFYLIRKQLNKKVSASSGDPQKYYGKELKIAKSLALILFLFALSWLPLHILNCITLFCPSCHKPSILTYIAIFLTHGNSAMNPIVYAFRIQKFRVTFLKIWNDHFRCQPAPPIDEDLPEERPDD

Cytochrome P450 2D6 = Cytochrome P450 2D6 (Homo sapiens, UniProt P10635); details: bti-tn-5b1-4; also: in other assays of this panel Not Active means under 50% inhibition at 10 µM
Chain of Cytochrome P450 2D6 (P10635 whole entry): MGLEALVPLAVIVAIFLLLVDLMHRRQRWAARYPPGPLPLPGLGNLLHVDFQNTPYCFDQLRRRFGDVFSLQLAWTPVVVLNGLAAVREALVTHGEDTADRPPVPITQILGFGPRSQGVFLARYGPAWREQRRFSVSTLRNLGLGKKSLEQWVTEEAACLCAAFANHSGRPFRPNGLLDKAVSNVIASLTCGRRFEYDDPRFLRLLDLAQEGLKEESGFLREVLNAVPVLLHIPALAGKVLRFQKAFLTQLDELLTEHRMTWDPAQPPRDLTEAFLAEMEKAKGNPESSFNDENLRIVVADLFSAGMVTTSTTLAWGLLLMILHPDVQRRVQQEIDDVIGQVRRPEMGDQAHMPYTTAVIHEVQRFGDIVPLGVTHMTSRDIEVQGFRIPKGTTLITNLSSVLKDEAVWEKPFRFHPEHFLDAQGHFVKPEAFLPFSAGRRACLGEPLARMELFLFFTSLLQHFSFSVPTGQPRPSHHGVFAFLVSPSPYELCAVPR

Mu-type opioid receptor = Mu-type opioid receptor (Homo sapiens, UniProt P35372); test: DRUGMATRIX: Opiate mu (OP3, MOP) radioligand binding (ligand: [3H] Diprenorphine); assay type: cell membranes, CHO-K1, Membrane; details: cho-k1; Not Active = under 50% inhibition at 10 µM
Chain of Mu-type opioid receptor (P35372 whole entry): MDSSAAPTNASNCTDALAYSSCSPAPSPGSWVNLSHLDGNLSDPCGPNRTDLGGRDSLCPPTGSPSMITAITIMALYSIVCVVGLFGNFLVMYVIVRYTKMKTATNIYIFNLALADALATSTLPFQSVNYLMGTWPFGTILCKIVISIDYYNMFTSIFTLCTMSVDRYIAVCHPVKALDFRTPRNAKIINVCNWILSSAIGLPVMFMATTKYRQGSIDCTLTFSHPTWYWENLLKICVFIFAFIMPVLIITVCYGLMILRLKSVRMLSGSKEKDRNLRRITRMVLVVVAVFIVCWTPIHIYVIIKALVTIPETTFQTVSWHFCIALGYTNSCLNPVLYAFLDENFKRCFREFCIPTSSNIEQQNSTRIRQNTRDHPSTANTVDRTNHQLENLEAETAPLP

Chain of 5-hydroxytryptamine receptor 2B (P41595 whole entry): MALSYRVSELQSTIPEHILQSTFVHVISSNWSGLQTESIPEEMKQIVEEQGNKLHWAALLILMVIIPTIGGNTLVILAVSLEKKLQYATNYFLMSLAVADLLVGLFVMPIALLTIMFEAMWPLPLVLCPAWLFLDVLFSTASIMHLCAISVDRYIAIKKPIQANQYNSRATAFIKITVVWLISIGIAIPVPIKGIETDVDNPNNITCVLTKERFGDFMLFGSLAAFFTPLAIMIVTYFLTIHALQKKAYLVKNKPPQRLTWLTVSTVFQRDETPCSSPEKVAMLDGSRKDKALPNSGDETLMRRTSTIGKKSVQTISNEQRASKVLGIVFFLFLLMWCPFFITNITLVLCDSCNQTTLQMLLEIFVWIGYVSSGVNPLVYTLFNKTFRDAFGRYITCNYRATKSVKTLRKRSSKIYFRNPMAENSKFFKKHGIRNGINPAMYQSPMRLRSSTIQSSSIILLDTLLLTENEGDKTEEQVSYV

Compound | IC50 [1] | Ki [1] | IC50 ([2]; cho-k1) | IC50 [3] | IC50 (D(1A) dopamine receptor) | IC50 (Adenosine receptor A1) | IC50 (Cytochrome P450 2D6) | Ki (Cytochrome P450 2D6) | IC50 (Mu-type opioid receptor) | IC50 ([2]; read-out: IC50) | Ki ([2]; read-out: Ki) | Ki ([2]; cho-k1)
C[C@H]1C[C@H]2[C@@H]3CCC4=CC(=O)C=C[C@]4(C)[C@@]3(Cl)[C@@H](O)C[C@]2(C)[C@@]1(O)C(=O)CO [BECLOMETHASONE] | Not Active | Not Active | Not Active | Not Active | Not Active | Not Active | Not Active | Not Active | Not Active | – | – | –
CCOC(=O)[C@H](CCc1ccccc1)N[C@H]1CCc2ccccc2N(CC(=O)O)C1=O [BENAZEPRIL] | Not Active | Not Active | Not Active | Not Active | Not Active | Not Active | Not Active | Not Active | Not Active | – | – | –
Nc1c(CC(=O)O)cccc1C(=O)c1ccc(Br)cc1 [BROMFENAC] | Not Active | Not Active | Not Active | Not Active | Not Active | Not Active | Not Active | Not Active | Not Active | – | – | –
O=C1CC2(CCCC2)CC(=O)N1CCCCN1CCN(c2ncccn2)CC1 [BUSPIRONE] | Not Active | Not Active | – | Not Active | Not Active | Not Active | Not Active | Not Active | Not Active | 0.75 µM | 0.477 µM | –
ClC(Cl)Cl [CHLOROFORM] | Not Active | Not Active | Not Active | Not Active | Not Active | Not Active | Not Active | Not Active | Not Active | – | – | –
C=C1CC[C@H](O)C/C1=C/C=C1\CCC[C@]2(C)[C@@H]([C@H](C)CCCC(C)C)CC[C@@H]12 [CHOLECALCIFEROL] | Not Active | Not Active | Not Active | Not Active | Not Active | Not Active | Not Active | Not Active | Not Active | – | – | –
C[N+](C)(C)CCO.[Cl-] [CHOLINE CHLORIDE] | Not Active | Not Active | Not Active | Not Active | Not Active | Not Active | Not Active | Not Active | Not Active | – | – | –
CC(=O)OCC(=O)[C@@]1(O)CC[C@H]2[C@@H]3CCC4=CC(=O)CC[C@]4(C)[C@H]3C(=O)C[C@@]21C [CORTISONE ACETATE] | Not Active | Not Active | Not Active | Not Active | Not Active | Not Active | Not Active | Not Active | Not Active | – | – | –
O=c1ccc2ccccc2o1 [COUMARIN] | Not Active | Not Active | – | Not Active | Not Active | Not Active | Not Active | Not Active | Not Active | – | – | Not Active
CN(C)/N=N/c1[nH]cnc1C(N)=O [DACARBAZINE] | Not Active | Not Active | Not Active | Not Active | Not Active | Not Active | Not Active | Not Active | Not Active | – | – | –
COc1ccc2c(c1)[C@]13CCCC[C@@H]1[C@H](C2)N(C)CC3 [DEXTROMETHORPHAN] | Not Active | Not Active | Not Active | Not Active | Not Active | Not Active | Not Active | Not Active | Not Active | – | – | –
CC(=O)Nc1c(I)c(NC(C)=O)c(I)c(C(=O)O)c1I [DIATRIZOIC ACID] | Not Active | Not Active | Not Active | Not Active | Not Active | Not Active | Not Active | Not Active | Not Active | – | – | –
O=C(O)Cc1ccccc1Nc1c(Cl)cccc1Cl [DICLOFENAC] | Not Active | Not Active | Not Active | Not Active | Not Active | Not Active | Not Active | Not Active | Not Active | – | – | –
C[C@H]1O[C@@H](O[C@H]2[C@@H](O)C[C@H](O[C@H]3[C@@H](O)C[C@H](O[C@H]4CC[C@@]5(C)[C@H](CC[C@@H]6[C@@H]5CC[C@]5(C)[C@@H](C7=CC(=O)OC7)CC[C@]65O)C4)O[C@@H]3C)O[C@@H]2C)C[C@H](O)[C@@H]1O [DIGITOXIN] | Not Active | Not Active | Not Active | Not Active | Not Active | Not Active | Not Active | Not Active | Not Active | – | – | –
Cn1c(=O)c2c(ncn2CC2OCCO2)n(C)c1=O [DOXOFYLLINE] | Not Active | Not Active | Not Active | Not Active | Not Active | Not Active | Not Active | Not Active | Not Active | – | – | –
COc1cccc2c1C(=O)c1c(O)c3c(c(O)c1C2=O)C[C@@](O)(C(=O)CO)C[C@@H]3O[C@H]1C[C@H](N)[C@H](O)[C@H](C)O1 [DOXORUBICIN] | Not Active | Not Active | Not Active | Not Active | Not Active | Not Active | Not Active | Not Active | Not Active | – | – | –
COc1cccc2c1C(=O)c1c(O)c3c(c(O)c1C2=O)C[C@@](O)(C(=O)CO)C[C@@H]3O[C@H]1C[C@H](N)[C@@H](O)[C@H](C)O1 [EPIRUBICIN] | Not Active | Not Active | Not Active | Not Active | Not Active | Not Active | Not Active | Not Active | Not Active | – | – | –
C[C@]12CC[C@@H]3c4ccc(OC(=O)c5ccccc5)cc4CC[C@H]3[C@@H]1CC[C@@H]2O [ESTRADIOL BENZOATE] | Not Active | Not Active | – | Not Active | Not Active | Not Active | Not Active | Not Active | Not Active | 11.6 µM | 7.36 µM | –
C[C@]12CC[C@@H]3c4ccc(O)cc4CC[C@H]3[C@@H]1CC[C@@H]2O [ESTRADIOL] | Not Active | Not Active | Not Active | Not Active | Not Active | Not Active | Not Active | Not Active | Not Active | – | – | –
CC[C@@H](CO)NCCN[C@@H](CC)CO [ETHAMBUTOL] | Not Active | Not Active | Not Active | Not Active | Not Active | Not Active | Not Active | Not Active | Not Active | – | – | –
CC1(C)O[C@@H]2C[C@H]3[C@@H]4C[C@H](F)C5=CC(=O)C=C[C@]5(C)[C@H]4[C@@H](O)C[C@]3(C)[C@]2(C(=O)CO)O1 [FLUNISOLIDE] | Not Active | Not Active | Not Active | Not Active | Not Active | Not Active | Not Active | Not Active | Not Active | – | – | –
CC1(C)O[C@@H]2C[C@H]3[C@@H]4C[C@H](F)C5=CC(=O)C=C[C@]5(C)[C@@]4(F)[C@@H](O)C[C@]3(C)[C@]2(C(=O)CO)O1 [FLUOCINOLONE ACETONIDE] | Not Active | Not Active | Not Active | Not Active | Not Active | Not Active | Not Active | Not Active | Not Active | – | – | –
CC1(C)O[C@@H]2C[C@H]3[C@@H]4C[C@H](F)C5=CC(=O)CC[C@]5(C)[C@H]4[C@@H](O)C[C@]3(C)[C@]2(C(=O)CO)O1 [FLURANDRENOLIDE] | Not Active | Not Active | Not Active | Not Active | Not Active | Not Active | Not Active | Not Active | Not Active | – | – | –
Cc1ccc(S(=O)(=O)NC(=O)NN2CC3CCCC3C2)cc1 (stereo unspecified) [GLICLAZIDE] | Not Active | Not Active | Not Active | Not Active | Not Active | Not Active | Not Active | Not Active | Not Active | – | – | –
CC(C)Cc1ccc(C(C)C(=O)O)cc1 (stereo unspecified) [IBUPROFEN] | Not Active | Not Active | Not Active | Not Active | Not Active | Not Active | Not Active | Not Active | Not Active | – | – | –
COc1ccc2c(c1)c(CC(=O)O)c(C)n2C(=O)c1ccc(Cl)cc1 [INDOMETHACIN] | Not Active | Not Active | Not Active | Not Active | Not Active | Not Active | Not Active | Not Active | Not Active | – | – | –
